From article PMC11837497, “A novel FadL family outer membrane transporter is involved in the uptake of polycyclic aromatic hydrocarbons” (Applied and Environmental Microbiology, 2025)

Target: T1, PadL (NpPadL) (Novosphingobium pentaromativorans, UniProt G6EAN6)
T1 construct: gene NSU_1434; padL expressed from pET-28b (T7, IPTG) in E. coli BL21 cells; also pHGE-Ptac complementation of delta-padL US6-1; signal peptide (residues 1-45) removed only in the model
T1 sequence (G6EAN6 46-450): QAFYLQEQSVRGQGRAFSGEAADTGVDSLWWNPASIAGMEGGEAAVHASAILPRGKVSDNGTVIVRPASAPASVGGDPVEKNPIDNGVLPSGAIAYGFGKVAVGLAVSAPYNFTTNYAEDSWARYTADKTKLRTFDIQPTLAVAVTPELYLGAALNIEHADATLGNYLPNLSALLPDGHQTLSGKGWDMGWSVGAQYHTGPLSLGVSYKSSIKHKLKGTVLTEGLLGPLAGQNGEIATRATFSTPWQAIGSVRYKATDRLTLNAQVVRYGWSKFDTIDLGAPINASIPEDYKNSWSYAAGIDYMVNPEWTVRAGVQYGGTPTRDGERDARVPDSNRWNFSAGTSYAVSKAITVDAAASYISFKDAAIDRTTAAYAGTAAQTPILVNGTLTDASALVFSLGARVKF
Assay: uptake by intact cells, confocal fluorescence of intracellular phenanthrene
Assay type: cell-based
Conditions: E. coli BL21/pET28b-padL, LB medium, 200 mg/L phenanthrene, IPTG induction, 37 °C

SMILES: c1ccc2c(c1)ccc1ccccc12 [phenanthrene]
- uptake by intact cells, confocal fluorescence of intracellular phenanthrene: E. coli BL21 can be endowed with an ability to assimilate phenanthrene after heterologous expression of PadL
